The test concerns the target T1, human Oxytocin (OTR) receptor (Homo sapiens, UniProt P30559).
T1 construct: expressed in transfected cells
T1 sequence (P30559 1-389): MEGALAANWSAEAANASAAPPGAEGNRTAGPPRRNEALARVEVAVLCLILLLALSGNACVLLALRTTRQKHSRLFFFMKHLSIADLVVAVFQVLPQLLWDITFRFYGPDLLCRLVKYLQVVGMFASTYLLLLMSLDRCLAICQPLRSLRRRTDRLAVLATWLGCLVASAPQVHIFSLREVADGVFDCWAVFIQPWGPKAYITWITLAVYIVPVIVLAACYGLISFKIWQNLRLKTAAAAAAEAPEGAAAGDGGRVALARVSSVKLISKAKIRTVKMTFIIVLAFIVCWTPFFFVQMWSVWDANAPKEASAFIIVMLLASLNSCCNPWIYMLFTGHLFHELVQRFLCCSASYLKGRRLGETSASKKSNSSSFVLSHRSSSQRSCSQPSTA
The test can be described thus: Calcium flux assay (FLIPR), agonist mode, CHO cells expressing human oxytocin receptor. Type of test: cell-based. The settings on record: for pEC50: CHO cells, human OTR, calcium flux FLIPR, read-out: hOT EC50; for hOT efficacy (%) / Emax: maximum response normalized to endogenous full agonist = 100%; for Emax: CHO, read-out: hOT efficacy (%). From the text: Chines Hamster Ovary (CHO) cells were transfected with expression plasmids encoding either the human V1a, the human Oxytocin (OTR) or the human V2 receptor, the later in combination with the chimeric Gqs5 G protein to redirect the signal to Calcium flux. Stable cells were cloned by limiting dilution to yield monoclonal cell lines expressing either human V1a, human V2+Gqs5 or human OTR receptors and selected based on functional responses detected on a fluorometric imaging plate reader (FLIPR) detecting Calcium flux in the cell after receptor activation. The stable cell lines were grown in F-12 K Nutrient Mixture (Kaighns Modification), containing 10% foetal bovine serum (FBS), 1% penicillin-streptomycin, 1% L-[…], 200 ug/ml Geneticin at 37° C. in a 10% CO2 incubator at 95% humidity.
On the afternoon before the assay, cells were plated at a density of 50,000 cells/well into black 96 well plates with clear bottoms to allow cell inspection and fluorescence measurements from the bottom of each well. The density of cells was sufficient to yield a confluent monolayer the next day. Hanks balanced salt solution, without phenol red, containing 20 mM HEPES (pH 7.3) and 2.5 mM probenecid (assay buffer) was prepared fresh for each experiment. Compound dilutions were made using a Beckman Biomek 2000 laboratory automation workstation, in assay buffer containing 1% DMSO. The dye-loading buffer consisted of a final concentration of 2 μM Fluo-4-AM (dissolved in DMSO and pluronic acid) in assay buffer. The existing culture media was removed from the wells and 100 μl of the dye-loading buffer was added to each well and incubated for approximately 60 min at 37° C. in a 5% CO2 incubator at 95% humidity. Once dye-loaded, the cells were washed thoroughly on an Embla cell washer with the assay buffer to remove any unincorporated dye. Exactly 100 μl assay buffer was left in each well.
Each 96 well plate containing dye-loaded cells was placed into the FLIPR machine and the laser intensity set to a suitable level to detect low basal fluorescence. To test compounds as agonists, 25 μl diluted compound was added to the plate 10 seconds into the fluorescent measurements and fluorescent response was recorded for 5 minutes. The fluorescence data was normalized to the endogenous full agonist dose-response set at 100% for the maximum response and 0% for the minimum. Each agonist concentration-response curve was constructed using a four parameter logistic equation with Microsoft Excel XLFit as follows: Y=Minimum+((Maximum−Minimum)/(1+10^(LogEC50-X)nH)), where y is the % normalized fluorescence, minimum is the minimum y, maximum is the maximum y, logEC50 is the log10 concentration which produces 50% of the maximum induced fluorescence, x is the log10 of the concentration of the agonist compound and H is the slope of the curve (the Hill Coefficient). The maximum value gives the efficacy of the agonist test compound in percentage. The concentration of agonist that produced a half-maximal response is represented by the EC50 value, the logarithm of which yielded the pEC50 value.

pEC50: −log10 of the molar value. Starred links: 1 amine or outer side, 2 acyl side, 3 side chain; linkers in the order of their positions; H or OH if unused. Positions of bridges follow the written chain, without caps; N, C: chain ends. Non-standard residues stand in square brackets, D forms with d. Residues, ends and D or L forms follow the SMILES beside them. X1 = N[C@H](CC(=O)[*:1])C(=O)[*:2]; d(αMeL) = CC(C)C[C@@](C)(N)C(=O)O; Cha = N[C@@H](CC1CCCCC1)C(=O)O; αMeL = CC(C)C[C@](C)(N)C(=O)O; Chg = N[C@H](C(=O)O)C1CCCCC1; Suc = O=C(CCC(=O)[*:2])[*:1]; NcPrGly = O=C(O)CNC1CC1; Dap = NC[C@H](N)C(=O)O; Aib = CC(C)(N)C(=O)O; Sar = CNCC(=O)O

As for `CC[C@H](C)[C@@H]1NC(=O)[C@H](Cc2ccc(O)cc2)NC(=O)CCC(=O)NC[C@@H](C(=O)N2CCC[C@H]2C(=O)N[C@@H](CCC(N)=O)C(=O)NCC(N)=O)NC(=O)[C@H](CC(N)=O)NC(=O)[C@H](CCC(N)=O)NC1=O` [Example 13] (YIQN[Dap]PQG-NH2; linker N-5 via Suc), the pEC50 was 8.10 and the “hOT efficacy (%)” value is 128%.

For `CC[C@H](C)[C@@H]1NC(=O)[C@H](Cc2ccc(O)cc2)NC(=O)CCC(=O)NC[C@@H](C(=O)N2CCC[C@H]2C(=O)N[C@@H](Cc2c[nH]c3ccccc23)C(=O)NCC(N)=O)NC(=O)[C@H](CC(N)=O)NC(=O)[C@H](CCC(N)=O)NC1=O` [Example 16] (YIQN[Dap]PWG-NH2; linker N-5 via Suc), the negative logarithm of the EC50 (pEC50) is 8.40 and the “hOT efficacy (%)” value amounted to 100%.

In the case of `CC[C@H](C)[C@@H]1NC(=O)[C@H](Cc2ccc(O)cc2)NC(=O)CCC(=O)NC[C@@H](C(=O)N(CC(=O)N[C@](C)(CC(C)C)C(=O)NCC(N)=O)C2CC2)NC(=O)[C@H](CC(N)=O)NC(=O)[C@H](CCC(N)=O)NC1=O` [Example 39] (YIQN[Dap][NcPrGly][d(αMeL)]G-NH2; linker N-5 via Suc), the negative logarithm of the EC50 (pEC50) was 8.89 and the Emax is 108%.

On to `CC[C@H](C)[C@@H]1NC(=O)[C@H](Cc2ccc(O)cc2)NC(=O)CCC(=O)NC[C@@H](C(=O)N(C)CC(=O)N[C@@H](Cc2cnc[nH]2)C(=O)NCC(N)=O)NC(=O)[C@H](CC(N)=O)NC(=O)[C@H](CCC(N)=O)NC1=O` [Example 35] (YIQN[Dap][Sar]HG-NH2; linker N-5 via Suc), for which the pEC50 was 8.40 and the “hOT efficacy (%)” value amounted to 111%.

For the compound `CC[C@H](C)[C@@H]1NC(=O)[C@H](Cc2ccc(O)cc2)NC(=O)CCC(=O)NC[C@@H](C(=O)N(C)CC(=O)N[C@@H](CCC(N)=O)C(=O)NCC(N)=O)NC(=O)[C@H](CC(N)=O)NC(=O)[C@H](CCC(N)=O)NC1=O` [Example 32] (YIQN[Dap][Sar]QG-NH2; linker N-5 via Suc), the negative-log EC50 (pEC50) was 8.30 and the “hOT efficacy (%)” value is on record as 112%.

Turning to `CC[C@H](C)[C@@H]1NC(=O)[C@H](Cc2ccc(O)cc2)NC(=O)CCC(=O)NC[C@@H](C(=O)N2CCC[C@H]2C(=O)N[C@@H](CC2CCCCC2)C(=O)NCC(N)=O)NC(=O)[C@H](CC(N)=O)NC(=O)[C@H](CCC(N)=O)NC1=O` [Example 18] (YIQN[Dap]P[Cha]G-NH2; linker N-5 via Suc), the negative-log EC50 (pEC50) was 8.70 and the “hOT efficacy (%)” value is listed as 130%.

With `CC[C@H](C)[C@@H]1NC(=O)[C@H](Cc2ccc(O)cc2)NC(=O)CCC(=O)NC[C@@H](C(=O)N2CCC[C@H]2C(=O)N[C@](C)(CC(C)C)C(=O)NCC(N)=O)NC(=O)[C@H](CC(N)=O)NC(=O)[C@H](CCC(N)=O)NC1=O` [Example 7] (YIQN[Dap]P[d(αMeL)]G-NH2; linker N-5 via Suc), the pEC50 was 8.52 and the “hOT efficacy (%)” value is 101%.

On to `CC[C@H](C)[C@@H]1NC(=O)[C@H](Cc2ccc(O)cc2)NC(=O)CCC(=O)NC[C@@H](C(=O)N(CC(=O)N[C@@H](CO)C(=O)NCC(N)=O)C2CC2)NC(=O)[C@H](CC(N)=O)NC(=O)[C@H](CCC(N)=O)NC1=O` [Example 45] (YIQN[Dap][NcPrGly]SG-NH2; linker N-5 via Suc), for which the negative-log EC50 (pEC50) was 9.10 and the Emax was 117%.

In the case of `CC[C@H](C)[C@@H]1NC(=O)[C@H](Cc2ccc(O)cc2)NC(=O)CCC(=O)NC[C@@H](C(=O)N(CC(=O)NC(C)(C)C(=O)NCC(N)=O)C2CC2)NC(=O)[C@H](CC(N)=O)NC(=O)[C@H](CCC(N)=O)NC1=O` [Example 41] (YIQN[Dap][NcPrGly][Aib]G-NH2; linker N-5 via Suc), the pEC50 was 8.60 and the Emax worked out at 108%.

For the compound `CC[C@H](C)[C@@H]1NC(=O)[C@H](Cc2ccc(O)cc2)NC(=O)C[C@@H](N)C(=O)NC[C@@H](C(=O)N(C)CC(=O)N[C@@H](CC(C)C)C(=O)NCC(N)=O)NC(=O)[C@H](CC(N)=O)NC(=O)[C@H](CCC(N)=O)NC1=O` [Example 4] (YIQN[Dap][Sar]LG-NH2; linker N-5 via X1), the pEC50 is 8.30 and the “hOT efficacy (%)” value is given as 126%.

On to `CC[C@@H](C)[C@@H](NC(=O)CN(C(=O)[C@@H]1CNC(=O)CCC(=O)N[C@@H](Cc2ccc(O)cc2)C(=O)N[C@@H]([C@@H](C)CC)C(=O)N[C@@H](CCC(N)=O)C(=O)N[C@@H](CC(N)=O)C(=O)N1)C1CC1)C(=O)NCC(N)=O` [Example 42] (YIQN[Dap][NcPrGly][dI]G-NH2; linker N-5 via Suc), for which the pEC50 was 9.43 and the Emax worked out at 115%.

In the case of `CC[C@H](C)[C@@H]1NC(=O)[C@H](Cc2ccc(O)cc2)NC(=O)CCC(=O)NC[C@@H](C(=O)N2CCC[C@H]2C(=O)N[C@H](C(=O)NCC(N)=O)C(C)C)NC(=O)[C@H](CC(N)=O)NC(=O)[C@H](CCC(N)=O)NC1=O` [Example 12] (YIQN[Dap]PVG-NH2; linker N-5 via Suc), the negative logarithm of the EC50 (pEC50) is 8.80 and the Emax worked out at 130%.

For `CC[C@H](C)[C@@H]1NC(=O)[C@H](Cc2ccc(O)cc2)NC(=O)CCC(=O)NC[C@@H](C(=O)N2CCC[C@H]2C(=O)N[C@@H](CCSC)C(=O)NCC(N)=O)NC(=O)[C@H](CC(N)=O)NC(=O)[C@H](CCC(N)=O)NC1=O` [Example 8] (YIQN[Dap]PMG-NH2; linker N-5 via Suc), the negative-log EC50 (pEC50) was 9.00 and the “hOT efficacy (%)” value turned out to be 134%.

Turning to `CC[C@H](C)[C@@H]1NC(=O)[C@H](Cc2ccc(O)cc2)NC(=O)CCC(=O)NC[C@@H](C(=O)N(C)CC(=O)N[C@@H](CO)C(=O)NCC(N)=O)NC(=O)[C@H](CC(N)=O)NC(=O)[C@H](CCC(N)=O)NC1=O` [Example 30] (YIQN[Dap][Sar]SG-NH2; linker N-5 via Suc), the negative logarithm of the EC50 (pEC50) was 8.70 and the “hOT efficacy (%)” value is recorded as 109%.

Consider `CC[C@H](C)[C@@H]1NC(=O)[C@H](Cc2ccc(O)cc2)NC(=O)CCC(=O)NC[C@@H](C(=O)N(CC(=O)N[C@@H](C(=O)NCC(N)=O)C(C)C)C2CC2)NC(=O)[C@H](CC(N)=O)NC(=O)[C@H](CCC(N)=O)NC1=O` [Example 40] (YIQN[Dap][NcPrGly][dV]G-NH2; linker N-5 via Suc), for which the negative logarithm of the EC50 (pEC50) is 9.22 and the Emax came out at 106%.

For the compound `CC[C@H](C)[C@@H]1NC(=O)[C@H](Cc2ccc(O)cc2)NC(=O)CCC(=O)NC[C@@H](C(=O)N(C)CC(=O)N[C@@](C)(CC(C)C)C(=O)NCC(N)=O)NC(=O)[C@H](CC(N)=O)NC(=O)[C@H](CCC(N)=O)NC1=O` [Example 23] (YIQN[Dap][Sar][αMeL]G-NH2; linker N-5 via Suc), the pEC50 is 8.52 and the “hOT efficacy (%)” value was found to be 123%.

On to `CC[C@H](C)[C@@H]1NC(=O)[C@H](Cc2ccc(O)cc2)NC(=O)CCC(=O)NC[C@@H](C(=O)N(CC(=O)N[C@H](C(=O)NCC(N)=O)C2CCCCC2)C2CC2)NC(=O)[C@H](CC(N)=O)NC(=O)[C@H](CCC(N)=O)NC1=O` [Example 43] (YIQN[Dap][NcPrGly][Chg]G-NH2; linker N-5 via Suc), for which the pEC50 is 9.59 and the Emax was 110%.

(Values after US9957298B2, “Peptides as oxytocin agonists” (Hoffmann-La Roche Inc., priority 2014, dated 2018).)
